Experimental data: PMC4838876, “Multivalent display of minimal Clostridium difficile glycan epitopes mimics antigenic properties of larger glycans” (Nature Communications, 2016)

System: mAbs 2C5, 10A1 and 10D6
Test: Glycan microarray binding of purified mAbs
Parameters: species or system mouse
Conditions: purified mAbs on microarray, 10 μg ml^−1
Source text: Three hybridoma clones termed 2C5, 10A1 and 10D6 produced IgG exclusively binding to 1. […] The three mAbs were of the IgG1 subtype (Fig. 4b). Microarrays with PS-I oligosaccharide substructures were used to determine their binding specificities (Fig. 4c). […] No binding to oligoglucoses 5 and 6, or unrelated glycans 7 or 8 was seen (Fig. 4c,d). Based on these findings, we concluded that the requirements for anti-PS-I antibody binding were a terminal rhamnose that is 1→3 linked to a glucose, as present in glycans 1–3.
Figure 4 Characterization and epitope recognition patterns of anti-PS-I mAbs. (a) SDS–PAGE analysis of the purified mAbs showing bands corresponding to heavy and light IgG chains. (b) Isotyping analysis of the three mAbs. […] (d) Glycan microarray-inferred binding signals to selected PS-I antigens (1–4) expressed as background-subtracted mean fluorescence intensities (MFIs) are shown. […]
Microarray slides were blocked with 1% BSA in PBS (w/v) for 1 h at RT, washed three times with PBS and dried by centrifugation (300 g, 5 min). […] Slides were incubated with fluorescence-labelled secondary antibodies diluted 1:400 in 1% BSA in PBS (w/v) in a humid chamber for 1 h at RT, washed three times with 0.1% Tween-20 in PBS (v/v), rinsed once with deionized water and dried by centrifugation (300 g, 5 min) before scanning with a GenePix 4300A microarray scanner (Molecular Devices). […]

Compound | Glycan microarray binding signal (in words)
C[C@@H]1O[C@@H](O[C@@H]2[C@@H](O)[C@H](O[C@H]3[C@H](O[C@@H]4O[C@@H](C)[C@H](O)[C@@H](O)[C@H]4O)[C@@H](O)[C@@H](O[C@H]4[C@@H](OCCCCCN)O[C@H](CO)[C@@H](O)[C@@H]4O)O[C@@H]3CO)O[C@H](CO)[C@H]2O)[C@H](O)[C@H](O)[C@H]1O [Compound 1] | Highest binding signals
C[C@@H]1O[C@@H](O[C@@H]2[C@@H](O)[C@H](OCCCCCN)O[C@H](CO)[C@H]2O)[C@H](O)[C@H](O)[C@H]1O [Compound 3, Rha-(1→3)-Glc] | weaker signals
